Experimental data reported in patent US20240059747A1, “UBIQUITIN VARIANT WITH HIGH AFFINITY FOR BINDING 53BP1 REDUCES THE AMOUNT OF AAV NEEDED TO ACHIEVE HIGH RATES OF HDR” (Integrated DNA Technologies, Inc., priority 2022, published 2024).

Columns and labels:
HDR [1] = settings: plasmid, AAV mediated gene delivery or mRNA delivery; double-stranded and single-stranded DNA donors; cited from earlier work
HEK293 cells = test: percent HDR by EcoR1 cleavage assay, Cas9 RNP nucleofection with AAV donor, HEK293 cells; type: cell-based; settings: for dose dependence of HDR benefit: AAV donor at MOI 20,000, doses up to 200 μM
Procedure: FIG. 1C depicts an exemplary heatmap showing the percent HDR at SERPINC1 in K562 cells with and without 50 uM CM1tf. […] The heatmaps show the percent HDR measured by EcoR1 cleavage assay with and without the use of CM1tf. Cas9 RNP (2 μM) was delivered with and without CM1tf into cells by Lonza nucleofection using 4 μM Alt-R Cas9 Electroporation Enhancer. AAV donor containing an EcoR1 cut site insert with 500 bp homology arms was added at a range of multiplicity of infection (MOIs) to cells for 24 hours following RNP delivery.
FIG. 2B depicts an exemplary heatmap showing the percent HDR at SERPINC1 in HEK293 cells with no enhancer, CM1tf, V2, or CM1tf+V2. […] Cas9 RNP was co-delivered with and without CM1tf into cells by Lonza nucleofection with 2 μM Cas9 RNP, 4 μM Alt-R Cas9 Electroporation Enhancer, and 0 or 25 uM CM1tf. AAV donor containing an EcoR1 cut site insert with 500 bp homology arms was added at a range of MOIs to cells for 24 hours following RNP delivery. V2 enhancer was added to media at a 1 uM final concentration for 24 hours following nucleofection.
The heatmaps show the percent HDR at STAT3 measured by EcoR1 cleavage assay with or without CM1tf. Cas9 RNP was co-delivered with and without CM1tf into cells by Lonza nucleofection with 2 μM Cas9 RNP, 4 μM Alt-R Cas9 Electroporation Enhancer, and 0 or 25 uM CM1tf. AAV donor containing 500 base pair (bp), 300 bp, or 100 bp homology arms was added at a range of MOIs to cells for 24 hours following RNP delivery.
Cas9 RNP was co-delivered with and without CM1tf into cells by Lonza nucleofection with 2 μM Cas9 RNP, 4 μM Alt-R Cas9 Electroporation Enhancer, and range of CM1tf concentrations from 200 μM to 6.25 μM. AAV donor containing an EcoR1 cut site insert with 500 bp homology arms was added at an MOI of 20,000 to cells for 24 hours following RNP delivery.
We developed at tag-free version of CM1 (CM1tf) and tested its ability to enhance HDR in cell lines using AAV donor (see Table 1). AAV-DJ, a synthetic AAV serotype most closely related to AAV-2 that is a chimera of type 2/type 8/ and type 9, was chosen for testing due to its high transduction efficiency in vitro for a broad range of cell types. The dose of CM1tf was held constant while a range of MOIs was used for the AAV donor. The AAV donor was constructed such that a 6 base pair insert consisting of an EcoR1 cut site (GAATTC) was flanked by 500 base pairs of homology arm matching the genomic sequence on either side of the target cut site. Briefly, Cas9 V3 protein (IDT) and Alt-R sgRNA (IDT) were mixed at a 1:1.2 ratio, incubated for 10 min, then Alt-R Cas9 electroporation enhancer (EE) (IDT), 1× PBS (Gibco), and CM1tf, diluted in 1× PBS, were added. HEK293 or K562 cells were washed and resuspended in SF buffer for Lonza Nucleofection and added to the RNP+DNA mix such that the final concentration of Cas9 RNP was 2 μM, EE was 4 μM, and CM1tf was 25 μM (HEK293 cells) or 50 μM (K562 cells). Cells plus RNP+DNA were electroporated using program DS-150 (HEK293 cells) or FF-120 (K562 cells) using the Lonza nucleofector system. Cells were then plated in 96 well plates at 20,000 cells/well and AAV was added to the wells at a range of MOI from 0 (no virus) to 160,000, with MOI being calculated as viral genomes (vg) per cell with vg calculated using qPCR. Cells were recovered and plated with serum free media, AAV was added, then serum containing media was added after four hours. Genomic DNA was isolated 48 hours after RNP delivery using QuickExtract (Lucigen).
In order to optimize HDR, it is often desirable to use a combination of HDR enhancers that work by different mechanisms to further boost HDR rates beyond what can be achieved by any single enhancer alone.

53BP1 foci = settings: introduced into cells; cited from earlier work
HDR [2] = settings: ssDNA donor; previous testing; cited from earlier work
K562 cells = test: percent HDR by EcoR1 cleavage assay, Cas9 RNP nucleofection with AAV donor, K562 cells; type: cell-based; settings: 50 μM CM1tf, SERPINC1, AAV donor MOI range, FIG. 1C
Procedure: FIG. 1C depicts an exemplary heatmap showing the percent HDR at SERPINC1 in K562 cells with and without 50 uM CM1tf. In FIG. 1A-C, the ubiquitin variant CM1tf boosts HDR when delivered with Cas9 RNP when an AAV vector is used to deliver the donor template. The heatmaps show the percent HDR measured by EcoR1 cleavage assay with and without the use of CM1tf. Cas9 RNP (2 μM) was delivered with and without CM1tf into cells by Lonza nucleofection using 4 μM Alt-R Cas9 Electroporation Enhancer. AAV donor containing an EcoR1 cut site insert with 500 bp homology arms was added at a range of multiplicity of infection (MOIs) to cells for 24 hours following RNP delivery.
We developed at tag-free version of CM1 (CM1tf) and tested its ability to enhance HDR in cell lines using AAV donor (see Table 1). AAV-DJ, a synthetic AAV serotype most closely related to AAV-2 that is a chimera of type 2/type 8/ and type 9, was chosen for testing due to its high transduction efficiency in vitro for a broad range of cell types. The dose of CM1tf was held constant while a range of MOIs was used for the AAV donor. […] Cells were then plated in 96 well plates at 20,000 cells/well and AAV was added to the wells at a range of MOI from 0 (no virus) to 160,000, with MOI being calculated as viral genomes (vg) per cell with vg calculated using qPCR. […]

Substance	rates of HDR (HDR [1])	dose dependence of HDR benefit (HEK293 cells; FIG. 4)	formation of ionizing radiation induced 53BP1 foci (53BP1 foci)	benefit to HDR as a function of dose (HDR [2])	optimal concentration for HDR benefit (HDR [2])	improvement in HDR rates, single enhancers and combination (HEK293 cells; 25 uM CM1tf, 1 μM V2 enhancer in media for 24 hours, AAV donor MOI range, HPRT1 and SERPINC1, FIG. 2)	boost of HDR rates (HEK293 cells; 25 μM CM1tf, AAV-DJ donor with 500 bp homology arms, MOI 0 to 160,000, HPRT1 and SERPINC1, FIG. 1A-B)	HDR boost compared with i53 (HEK293 cells; AAV donor at MOI 20,000, doses 6.25 to 200 μM, FIG. 4)	less AAV needed to achieve the same level of editing as without enhancer (HEK293 cells; HEK293 cells, 25 μM CM1tf, AAV donor MOI range)	boost of HDR (K562 cells)
i53: ubiquitin variant inhibitor of 53BP1 (Canny et al.), SEQ ID NO: 1	improve the rates of HDR	large performance increase going from 100 μM to 200 μM	inhibited the formation ionizing radiation induced 53BP1 foci	decrease in benefit at 200 μM	100 to 150 µM					
CM1tf: tag-free version of ubiquitin variant CM1, SEQ ID NO: 3; K6R, T7M, T12M, T14E, K33H, A46Q, S65P, L67K, H68M relative to i53		slightly larger benefit to HDR with increasing dose				approximately equivalent improvement in HDR rates	dramatically boosted HDR rates	continued to outperform i53	approximately four-fold	boosts HDR
